Legend:
[1] = test system: mouse embryonic fibroblasts (MEFs); test: Reprogramming into iPSCs (OSKM) in mouse embryonic fibroblasts, AP staining; format: cell-based; details: for effect on reprogramming, number of AP+ colonies: MEFs, OSKM, after 14 days, indicated concentrations
Method: During reprogramming into iPSCs by introducing OSKM reprogramming factor into mouse embryonic fibroblasts (MEFs), rotenone, the guanidine derivatives of the present invention, and phenformin were treated at the indicated concentrations. After 14 days, alkaline phosphatase (AP) staining was performed (FIG. 2A), and the number of AP^+ colonies was quantified (FIG. 2b). […] In the subsequent experiment, additional efficacy was evaluated using only the three compounds showing the effective reprogramming-enhancing effect.

[2] = test system: human foreskin fibroblast (HFFs); test: Reprogramming into iPSCs (OSKM) in human foreskin fibroblasts, AP staining; format: cell-based; details: OSKM, after 28 days
Method: After 28 days, AP staining was performed (FIG. 3a), and the number of AP^+ colonies was quantified (FIG. 3b).

[3] = test system: human embryonic stem cells (hESCs); test: Maintaining stemness of human embryonic stem cells in unconditioned medium, AP staining; format: cell-based; details: hESCs in unconditioned medium, low dose
Method: Additionally, the effect of the compounds of the present invention on maintaining sternness of human embryonic stern cells (hESCs) was confirmed (FIG. 4). Specifically, when hESCs were cultured in an unconditioned medium (UM), the sternness was lost, and AP activity was weakened (FIG. 4a). […] In particular, when IM176OUT05 was treated at 10 nM and 100 nM concentrations, it was confirmed that the effect of maintaining the sternness was improved by 7.6 times and 8.2 times, respectively (FIG. 4b).

C57BL/6 mice = test: Hair regeneration model, darkness of dorsal skin and hair growth; format: in vivo, mouse; details: 1% topical daily
Method: During the hair telogen phase, the hair on the dorsal skin of 7-week-old C57BL/6 mice (Dae Han BioLink, Chungbuk, Republic of Korea) was depilated using an animal clipper and wax (Veet, Oxy Reckitt Benckiser, Seoul, Republic of Korea). From the next day, 200 μL of placebo (control), 1% IM, 1% minoxidil, or 1% metformin was applied daily to the depilated area using a sterile cotton swab. Images of each animal were captured daily, and the degree of darkness of the color on dorsal skin was quantified in the same area (1.6 cm×3 cm) using the Image J program. The mice were sacrificed, and skin tissues on days 0, 7, 14, and 20 were obtained. Half of the tissues were used for RNA isolation, and the other half were fixed with 4% paraformaldehyde overnight for histochemical analysis. It was confirmed whether the IM compound can promote hair growth without showing toxicity or other side effects through mouse experiments. In 7-week-old C57BL/6 mice, the telogen phase was motivated by hair removal, and various concentrations of IM were applied topically to the dorsal skin of the mice daily.

[4] = test system: K15/β-catenin, Ki67/Shh, K15/PDK, Ki67/PDH populations; test: FACS analysis of single skin cells; format: in vivo, mouse
Method: During the hair telogen phase, the hair on the dorsal skin of 7-week-old C57BL/6 mice (Dae Han BioLink, Chungbuk, Republic of Korea) was depilated using an animal clipper and wax (Veet, Oxy Reckitt Benckiser, Seoul, Republic of Korea). From the next day, 200 μL of placebo (control), 1% IM, 1% minoxidil, or 1% metformin was applied daily to the depilated area using a sterile cotton swab. Images of each animal were captured daily, and the degree of darkness of the color on dorsal skin was quantified in the same area (1.6 cm×3 cm) using the Image J program. The mice were sacrificed, and skin tissues on days 0, 7, 14, and 20 were obtained. Half of the tissues were used for RNA isolation, and the other half were fixed with 4% paraformaldehyde overnight for histochemical analysis. After the mice were perfused with PBS to remove blood, the skin tissue was harvested and cut into small pieces. The tissue was digested with trypsin (Thermo Fisher Scientific) at 37° C. for 150 minutes, then filtered through a 75 μm nylon mesh, followed by filtering through a 30 μm mesh (BD Biosciences). Single cells were fixed, permeabilized, and blocked according to the immunostaining protocol. The cells were stained with specific antibodies (Table 1 above) and analyzed with BD Accuri™ C6 (BD Biosciences)

## NC(=Nc1ccc(OC(F)(F)F)cc1)N=C(N)N1CCCC1 [IM156]
[1]
  effect on reprogramming, number of AP+ colonies: did not show an effect of promoting reprogramming

## N=C(N)NC(=N)NCCc1ccc(Cl)c(Cl)c1 [IM176OUT04, N-1-(3,4-dichloro)phenethylbiguanide]
[1]
  effect on reprogramming, number of AP+ colonies: increased
[2]
  concentration with the most excellent reprogramming efficacy: 10 nM
[3]
  AP staining (stemness): increase in AP staining

## Cc1ccc(CCNC(=N)N)cc1C [IM177OUT02, 1-(3,4-dimethylphenethyl)guanide]
[1]
  effect on reprogramming, number of AP+ colonies: increased
[2]
  concentration with the most excellent reprogramming efficacy: 10 nM
[3]
  AP staining (stemness): increase in AP staining

## C=C(C)[C@H]1Cc2c(ccc3c2O[C@@H]2COc4cc(OC)c(OC)cc4[C@@H]2C3=O)O1 [Rotenone, reference compound]
[1]; sub-toxic dose (10 nM)
  promotion of reprogramming of somatic cells: efficiently promote reprogramming

## CN(C)C(=N)N=C(N)N [metformin, reference compound]
C57BL/6 mice
  hair growth effect overall: did not show a remarkable effect
C57BL/6 mice; from day 8
  darkness intensity on the dorsal skin compared to control: slightly was increased

## Nc1cc(N2CCCCC2)nc(N)[n+]1[O-] [minoxidil, reference compound]
[4]; day 7, FACS
  K15+/β-catenin+ population in single skin cells: 6.0%
  Ki67+/PDH+ population: 8.3%
[4]; day 20, FACS
  Ki67+/Shh+ population in single skin cells: 34%

## [H]/N=C(/N)N/C(=N/[H])NCCc1ccccc1 [phenformin, reference compound]
[1]
  effect on reprogramming, number of AP+ colonies: did not show an effect of promoting reprogramming
